Columns and labels:
[1] = tested on: androgen responsive genes in LNCaP cells; assay: mRNA expression of androgen responsive genes in LNCaP cells (NanoString AR/Prostate Cancer gene panel)
[2] = In vivo pharmacokinetics in plasma after oral gavage; conditions: mouse, male CD-1 mice
Method: The purpose of this study is to determine the pharmacokinetics of the tested compounds in plasma, following oral gavage administration (PO) to male CD-1 mice.
Animal Husbandry: Animals were group housed during acclimation and the study. The animal room environment were controlled (target conditions: temperature 18 to 26° C., relative humidity 30 to 70%, 12 hours artificial light and 12 hours dark). Temperature and relative humidity were monitored daily. Animals were fasted at least 12 hours prior to the administration. All animals had access to Certified Rodent Diet ad libitum 4 hours post dosing.
Dose Formulation: prepared 85-100 μL of a stock solution of representative compounds of the disclosure in DMSO at 50 mM; 1.5% v/v of Tween 80 were added and mixed gently; 95.5% v/v saline was added gently to the organic phase. The solution was mixed slowly by reverse pipetting to get a clear solution.
Dose Administration: the dose formulations were administered via oral gavage per facility SOPs. The dose volume were determined by the animals' body weight collected on the morning of dosing day
Sample Collection: blood collection (about 0.05 mL per time point) was performed from saphenous vein of each animal into polypropylene tubes at each timepoints (0, 0.25, 0.5, 1, 2, 4, 8, 12, and 24 hr). All blood samples were transferred into pre-chilled tubes containing 2 μL of K2-EDTA (0.5M) and placed on wet ice until centrifugation. Each collected blood sample was in the wet-ice before centrifugation. Each collected blood was under centrifugation for 15 minutes at 4° C. and 3000 g for plasma collection. Plasma samples were stored in polypropylene tubes, quickly frozen over dry ice and kept at −70±10° C. until LC/MS/MS analysis.
Bioanalytical analysis: A LC-MS/MS method for the quantitative determination of tested compound in biological matrix were developed under non-GLP compliance. A calibration curve with at least 7 non-zero calibration standards were applied for the method including LLOQ.
Plasma concentration versus time data were analyzed by non-compartmental approaches using the Phoenix WinNonlin 6.3 software program. Cl, Vdss, C0, Cmax, Tmax, T½, AUC(0-t), AUC(0-inf), MRT(0-t), MRT(0-inf), % F (oral availability) and graphs of plasma concentration versus time profile were reported.

[3] = tested on: androgen responsive genes in VCaP cells; assay: mRNA expression of androgen responsive genes in VCaP cells (RNAseq); format: cell-based
Method: Relative mRNA expression in VCaP was measured to assess response of Compound A, enzalutamide (Enza), apalutamide (Apa), or darolutamide (Daro) alone or Compound A in combination with Enza, Apa, or Daro, in androgen responsive genes.

[4] = enzalutamide in plasma, single PO dose 15.0 mg/kg, single agent or with Compound A
[5] = Compound A in plasma, single PO dose 60.00 mg/kg, single agent or with enzalutamide

| AUC(0-t) [2, 4] | Cmax [2, 4] | Tmax [2, 4] | AUC(0-t) [2, 5] | Cmax [2, 5] | Tmax [2, 5] | half-life ([2]; Compound A in plasma, single PO dose 60.00 mg/kg, single agent or with enzalutamide, read-out: T½ (converted)) | Compound | Log2Fold Change CDC6 ([1]; LNCaP, 7.5 μM) | Log2Fold Change ERRFl1 ([1]; LNCaP, 7.5 μM) | Log2Fold Change SNAl2 ([1]; LNCaP, 7.5 μM) | Relative mRNA expression of androgen response genes FKBP5, TMPRSS2, KLK2, KLK3, and NKX3.1 ([1]; LNCaP cells (FIG. 6A)) | inhibition of canonical AR dependent genes ([3]; Compound A at 10 μM in combination with the 'lutamides (FIGS. 11A, 11B)) | synergy on androgen responsive gene expression ([3]; Compound A at 10 μM with Enza, Apa or Daro, R1881 stimulation (FIG. 10)) |
| --- | --- | --- | --- | --- | --- | --- | --- | --- | --- | --- | --- | --- | --- |
| 388 µg·h/mL | 21100 ng/mL | 9 h |  |  |  |  | CNC(=O)c1ccc(N2C(=S)N(c3ccc(C#N)c(C(F)(F)F)c3)C(=O)C2(C)C)cc1F [Enzalutamide, enzalutamide, reference compound] | −1.20 | −4.51 | −3.97 |  |  |  |
|  |  |  | 483 µg·h/mL | 41700 ng/mL | 4 h | 5.4 h | CC(C)(c1ccc(OCc2ccnc(NS(C)(=O)=O)n2)cc1)c1cc(Cl)c(OCCCl)c(C#N)c1 [Compound A, N-(4-((4-(2-(3-chloro-4-(2-chloroethoxy)-5-cyanophenyl)propan-2-yl)phenoxy)methyl)pyrimidin-2-yl)methanesulfonamide] |  | −2.76 | −1.79 | dose-dependent response | superior inhibition of responsive genes | can synergize with Enza, Apa, and Daro |
